The values below come from article PMC9167803 (Acta Pharmaceutica Sinica. B, 2022).

For this test, the target named is SARS-CoV-2 RBD (Severe acute respiratory syndrome coronavirus 2, UniProt P0DTC2). The test can be described thus: biochemical. In kind it is binding.

Regarding `O=c1c(O)c(-c2ccc(O)c(O)c2)oc2cc(O)cc(O)c12` [compound 4, quercetin], the affinity, expressed as Kd, was 75.6 µM.

A word on the Kd: it is a measure of binding affinity in units of concentration. A low value points to a tighter complex.
